According to patent publication US4231946A, “14,15-Methylene derivatives of the estrane series and methods for preparing same” (VEB Jenapharm, priority 1978, dated 1980):
Read-outs that look alike come from different tables or passages of the source.

Key:
[1] = system: inseminated rats; assay: Antinidation / Nidation Inhibition Test in inseminated rats treated on the 1st day of gestation; assay type: in vivo, rat; conditions: for ED50 / ED5 / ED95: Rattus norvegicus, po
Excerpt: The favorable biological properties of the named compounds of the process according to the invention are to be further illustrated and described in the example of 3-methoxy-14β-15β-methylene-estra-1,3,5(10)-triene-17β-ol (test designation STS 593).
(§1) Gestation and nidation inhibition expressed in % were used as parameters for antifertility effects. GHE1 (gestation inhibitory effect) and IHE1 (nidation inhibitory effect) were related to the inhibition of the total of gestations or nidations, GHE2 and IHE2 were related to the inhibition of normal gestations or nidations within each group. […] GHE1, GHE2, IHE1 and IHE2 were calculated using the following formulae: [formula] n=number of females inseminated in each group v=test group
k=control group (sesame oil)
x=number of all gestations (GHE1) and of normal gestations (GHE2) p. group, respectively
(§2) f=average number (x) of all implantations (IHE1) and of normal implantations (IHE2) p. female inseminated within a group, respectively.
The comparison of the relative incidence of gestations was performed by the Ryan test, the comparison of the number of implantations by the Dunn test.
(§3) For GHE1 and GHE2 the ED (effective doses) for the HE (inhibitory effect) 0%, 50%, and 95% as far as possible were determined by means of the probit analysis. The ED50 for IHE1 and IHE2 were determined graphically.

[2] = system: ovariectomized mice; assay: Allen-Doisy test in ovariectomized mice (estrogenic properties); assay type: in vivo, mouse
Excerpt: (§4) STS 593 was weaker than ethynylestradiol by a factor of 9 in its estrogenic properties as shown by the Allen-Doisy test in ovariectomized mice. The compound was only 7% as active as the standard mestranol in producing a uterine response in infantile rats (Table 3), whereas the antiestrogenic properties exceeded those of clomiphene citrate by a factor of 1.4.

[3] = system: infantile female Wistar rats; assay: Uterine activity in infantile female Wistar rats; assay type: in vivo, Wistar rat; conditions: for Uterine weight (-x): n=10
Excerpt: as §4
Comparison of uterine activity in infantile female
Wistar rats produced by STS 593 and mestranol

[4] = Antiestrogenic properties; conditions: in vivo
Excerpt: as §4

[5] = system: rats (testicular mass); assay: Antigonadotrophic activity (testicular mass) in rats; assay type: in vivo, rat; conditions: for ED50: Rattus norvegicus; for IE %: testicular mass
Description: The effective dose for the HE50 was close to 0.65 mg/kg of body-wt./5 d, while mestranol has the same effect at a dose as low as 0.15 mg/kg of body-wt./5 d.

[6] = system: infantile male rats; assay: Androgenic, anabolic and antiandrogenic effects in infantile male rats; assay type: in vivo, rat; conditions: orally over 6 days, total doses 0.75-3.0 mg/animal
Excerpt: The HE of 97.3% is significant (Table 5).

[7] = in vivo
Excerpt: In this context the compound is better than mestranol by a factor of 6.

[8] = system: mice (uterine fresh weight); assay: Uterine activity in mice (dose for doubling uterine fresh weight); assay type: in vivo, mouse; conditions: p.o.
Excerpt: (§5) Uterine and contraceptive activities produced by selected
(§6) 14,15-methylene-17-ol-estratrienes in mice

[9] = system: mice; assay: Contraceptive activity in mice, single application on 1st day of gestation; assay type: in vivo, mouse; conditions: mice, 10 mg/kg p.o., single application
Description: as §1, §2, §3, §5, §6

[10] = General statement on antifertility effects and separation from uterine, estrogenic and antigonadotrophic activities; assay type: in vivo; conditions: compared to mestranol
[11] = 1st trial 1975, 0.1 mg/kg p.o., n=12
[12] = 1st trial 1975, 0.3 mg/kg p.o., n=12
[13] = 1st trial 1975, 0.9 mg/kg p.o., n=12
[14] = 2nd trial 1978, 0.08 mg/kg p.o., n=10
[15] = 2nd trial 1978, 0.16 mg/kg p.o., n=10
[16] = 2nd trial 1978, 0.32 mg/kg p.o., n=10
[17] = 2nd trial 1978, 0.64 mg/kg p.o., n=10
[18] = 2nd trial 1978, 1.28 mg/kg p.o., n=10
[19] = total dose 0.25 mg/kg of body-wt. p.o., n=9
[20] = total dose 0.50 mg/kg of body-wt. p.o., n=10
[21] = total dose 1.00 mg/kg of body-wt. p.o., n=10

For `COc1ccc2c(c1)CC[C@@H]1[C@@H]2CC[C@]2(C)[C@@H](O)C[C@H]3C[C@@]312` [STS 593, 3-methoxy-14β,15β-methylene-estra-1,3,5(10)-triene-17β-ol], the “Female rats pregnant of n, normal” value [1, 11] was 10, the “Female rats pregnant of n, total” value [1, 11] was 10 and the GHE1 [1, 11] was 16.7%. It also gave a GHE2 [1, 11] of 16.7%, an IHE1 [1, 11] of 30.0% and an IHE2 [1, 11] of 34.7%. The “Implantations per female (-x), normal” value [1, 11] was 8.2, the “Implantations per female (-x), total” value [1, 11] was 8.8 and the “Female rats pregnant of n, normal” value [1, 12] was 5. For the same compound, the “Female rats pregnant of n, total” value [1, 12] was 8, the GHE1 [1, 12] was 33.3% and the GHE2 [1, 12] was 58.3%. For the same compound, the IHE1 [1, 12] was 70.0%, the IHE2 [1, 12] was 72.7% and the “Implantations per female (-x), normal” value [1, 12] was 3.4. For the same compound, the “Implantations per female (-x), total” value [1, 12] was 3.8, the “Female rats pregnant of n, normal” value [1, 13] was 3 and the “Female rats pregnant of n, total” value [1, 13] was 6. For the same compound, the GHE1 [1, 13] was 50.0%, the GHE2 [1, 13] was 75.0% and the IHE1 [1, 13] was 86.7%. For the same compound, the IHE2 [1, 13] was 94.7%, the “Implantations per female (-x), normal” value [1, 13] was 0.7 and the “Implantations per female (-x), total” value [1, 13] was 1.7. For the same compound, the “Female rats pregnant of n, normal” value [1, 14] was 9, the “Female rats pregnant of n, total” value [1, 14] was 9 and the GHE1 [1, 14] was 10%. It also gave a GHE2 [1, 14] of 10%, an IHE1 [1, 14] of 18.5% and an IHE2 [1, 14] of 19.2%. The “Implantations per female (-x), normal” value [1, 14] was 10.5, the “Implantations per female (-x), total” value [1, 14] was 10.6 and the “Female rats pregnant of n, normal” value [1, 15] was 2. The “Female rats pregnant of n, total” value [1, 15] was 10, the GHE1 [1, 15] was 0% and the GHE2 [1, 15] was 80%. The IHE1 [1, 15] was 32.3%, the IHE2 [1, 15] was 82.3% and the “Implantations per female (-x), normal” value [1, 15] was 2.3. The “Implantations per female (-x), total” value [1, 15] was 8.8, the “Female rats pregnant of n, normal” value [1, 16] was 3 and the “Female rats pregnant of n, total” value [1, 16] was 5. For the same compound, the GHE1 [1, 16] was 50%, the GHE2 [1, 16] was 70% and the IHE1 [1, 16] was 74.6%. The IHE2 [1, 16] was 86.1%, the “Implantations per female (-x), normal” value [1, 16] was 1.8 and the “Implantations per female (-x), total” value [1, 16] was 3.3. For the same compound, the “Female rats pregnant of n, normal” value [1, 17] was 0, the “Female rats pregnant of n, total” value [1, 17] was 4 and the GHE1 [1, 17] was 60%. It also gave a GHE2 [1, 17] of 100%, an IHE1 [1, 17] of 87.7% and an IHE2 [1, 17] of 100%. For the same compound, the “Implantations per female (-x), normal” value [1, 17] was 0, the “Implantations per female (-x), total” value [1, 17] was 1.6 and the “Female rats pregnant of n, normal” value [1, 18] was 0. For the same compound, the “Female rats pregnant of n, total” value [1, 18] was 2, the GHE1 [1, 18] was 80% and the GHE2 [1, 18] was 100%. The IHE1 [1, 18] was 88.5%, the IHE2 [1, 18] was 100% and the “Implantations per female (-x), normal” value [1, 18] was 0. The “Implantations per female (-x), total” value [1, 18] was 1.5, the ED50 ([1]; according to trial No. 1, read-out: ED50 for IHE1) was 0.175 mg/kg and the ED50 ([1]; according to trial No. 1, read-out: ED50 for IHE2) was 0.155 mg/kg. The ED50 ([1]; determined graphically, STS 593 from trial No. 2, read-out: ED 50 for IHE1) was 0.22 mg/kg, the ED50 ([1]; determined graphically, STS 593 from trial No. 2, read-out: ED 50 for IHE2) was 0.112 mg/kg and the ED5 ([1]; probit analysis, STS 593 from trial No. 2, read-out: ED 05 for GHE1) was 0.078 mg/kg. The ED5 ([1]; probit analysis, STS 593 from trial No. 2, read-out: ED 05 for GHE2) was 0.044 mg/kg, the ED50 ([1]; probit analysis, STS 593 from trial No. 2, read-out: ED 50 for GHE1) was 0.474 mg/kg and the ED50 ([1]; probit analysis, STS 593 from trial No. 2, read-out: ED 50 for GHE2) was 0.147 mg/kg. The ED95 ([1]; probit analysis, STS 593 from trial No. 2, read-out: ED 95 for GHE1) was 2.59 mg/kg, the ED95 ([1]; probit analysis, STS 593 from trial No. 2, read-out: ED 95 for GHE2) was 0.454 mg/kg and the “Contraceptive activity related to IHE1, compared to ethynylestradiol” value ([1]; female rat) was “nearly double the activity of ethynylestradiol”. The “Contraceptive activity related to IHE1, compared to mestranol” value ([1]; female rat) was “in the range of that of mestranol”, the “Estrogenic properties: factor weaker than ethynylestradiol” value [2] was 9 factor and the “Uterine response, activity relative to mestranol” value ([3]; infantile rats) was 7%. The “Uterine weight (-x)” value ([3]; total dose 0.1 per animal over 3 days p.o.) was 27.63 mg, the “Uterine weight (-x)” value ([3]; total dose 1.0 per animal over 3 days p.o.) was 52.40 mg and the “Uterine weight (-x)” value ([3]; total dose 10.0 per animal over 3 days p.o.) was 75.90 mg. For the same compound, the “Antiestrogenic properties: factor exceeding clomiphene citrate” value [4] was 1.4 factor, the “Antiestrogenic properties (in words)” value ([4]; listed as 3-methoxy-14β,15β-methylene-estra-1,3,5(10)-triene-17β-ol) was “marked antiestrogenic properties” and the “Antiestrogenic properties (in words)” value ([4]; listed as 3-methoxy-14β-15β-methylene-estra-1,3,5(10)-triene-17β-ol) was “produces antiestrogenic and antiprogestagenic effects”. The ED50 ([5]; 120 h, rats, read-out: Effective dose for the HE50, antigonadotrophic) was roughly 0.65 mg/kg, the ED50 ([5]; po, antigonadotrophic, total dose p.o., read-out: HE 50 (the source's name)) was 0.65 mg/kg and the “Antigonadotrophic effect compared to mestranol” value ([5]; rats) was “four times weaker than mestranol”. For the same compound, the IE % [5, 19] was 18.1%, the IE % [5, 20] was 39.6% and the IE % [5, 21] was 68.9%. The “Testicular mass (-x ± s-x)” value [5, 19] was 312.4 ± 42.5 mg, the “Testicular mass (-x ± s-x)” value [5, 20] was 272.3 ± 37.7 mg and the “Testicular mass (-x ± s-x)” value [5, 21] was 217.6 ± 24.2 mg. The Anabolic effects [6] was “did not show any”, the Androgenic effects [6] was “did not show any” and the Antiandrogenic effects [6] was “did not show any”. The “Separation of contraceptive activity and undesirable post implantation fetal damage (in words)” value [7] was “favorable separation”, the “Separation of contraceptive activity and undesirable post implantation fetal damage: factor better than mestranol” value [7] was 6 factor and the “Total dose for doubling uterine fresh weight” value [8] was 0.45 μg/animal. The “THE, % after single application of 10 mg/kg of body-wt. on the 1st day of gestation p.o.” value [9] was 80.2% and the “Separation of contraceptive properties and undesirable (estrogenic, antigonadotrophic, progestagenic) side-effects vs mestranol” value [10] was “more favorable separation”.
